The record followed here is patent US20080194567A1, “Combination Treatment for Enhancing Diuresis” (priority 2005, published 2008).

Holding throughout (type): in vivo, human
Experiment [1] is described as follows: Experiment 3: case report, levosimendan infusion added to diuretics in a person with dilating cardiomyopathy. The protocol:
Person was admitted to hospital due to worsened dyspnea. They suffered from idiopathic dilating cardiomyopathy and their left ventricular ejection fraction was 26%. They were treated with diuretics (furosemide and spironolactone) as well as perindopril, bisoprolol and digitalis without positive response for one week. Levosimendan infusion of 0.05 microg/kg/min was added. During the next 24 hours they urinated 3500 ml and during the next five days their weight decreased from 66.5 kg to 62.5 kg, although it had not changed at all before the infusion of levosimendan.

Experiment [2] is described as follows: Experiment 2: case report, levosimendan infusion added to vasodilators and diuretics in a person with dyspnea and lung oedema. The protocol:
Person was admitted to hospital due to severely worsened dyspnea. They suffered from coronary artery disease with no possibilities for re-vascularisation. They had ejection fraction below 35%, markedly elevated end-diastolic pressure and moderate mitral regurgitation. […] They were treated with positive pressure ventilation, vasodilators and diuretics for three days without positive response. Levosimendan fusion with a bolus and continuous infusion rate up to 0.2 microg/kg/min was added. The infusion lasted 24 hours. Before the infusion their daily urinary volumes varied between 2150 and 2730 ml. On the day levosimendan was started their urinary volume was 2650 and increased to 3855, 2890 and 2790 ml during the next consecutive days, and their fluid balance was 8500 ml negative during the four next days after the infusion of levosimendan.

The nature of experiment [3]: Experiment 1: case report, levosimendan infusion added to diuretics in a person with congestive heart failure. The settings on record: for daily urine volume: 850-1850 ml before start. An excerpt: Person was admitted to hospital due to congestive heart failure. In cardiac echocardiography they had ejection fraction below 30%, moderate regurgitation of mitral valve and dilative cardiomyopathy. According to coronary angiography invasive procedures such as angioplasty or coronary by-pass surgery were not possible. During the first four days at hospital they received diuretics (furosemide and spironolactone) as well as lisinopril, bisoprolol, antibiotics and allopurinol without any positive response. Their dyspnea worsened and peripheral oedema increased. Levosimendan infusion was added with the dose of 0.05 microg/kg/min and was increased to 0.1 microg/kg/min after two hours, the infusion lasted 24 hours, no bolus infusion was used due to low blood pressure. During the next day patient told that they felt better and dyspnea and periphera oedema decreased. […] The daily urine volumes varied between 850 and 1850 ml before the start of levosimendan, and increased up to 6350 ml on the day they received levosimendan, and were 3800 ml on the day after levosimendan infusion, after that they went down to normal.

The compound `C[C@@H]1CC(=O)NN=C1c1ccc(NN=C(C#N)C#N)cc1` [levosimendan, (−)-enantiomer of [[4-(1,4,5,6-tetrahydro-4-methyl-6-oxo-3-pyridazinyl)phenyl]hydrazono]propanedinitrile] returned a body weight in experiment [1] (after the next five days, decreased from 66.5 kg, no change before the infusion) of 62.5 kg. In experiment [1] (during the next 24 hours after levosimendan 0.05 microg/kg/min was added to furosemide and spironolactone), this compound had a urine volume of 3500 mL. In addition, the “fluid balance (negative)” value in experiment [2] (during the four next days after the infusion of levosimendan) is 8500 mL. Moreover, the daily urinary volume amounted to 3855 mL in experiment [2] (first consecutive day after levosimendan start, 2150-2730 ml before infusion); 2650 mL in experiment [2] (on the day levosimendan was started (bolus plus infusion up to 0.2 microg/kg/min, 24 h) on top of diuretics, 2150-2730 ml before infusion); 2890 mL in experiment [2] (second consecutive day after levosimendan start); 2790 mL in experiment [2] (third consecutive day after levosimendan start). The “urinary volumes (in words)” value in experiment [3] (after the levosimendan infusion was added to diuretics) is recorded as “increased markedly”. For the same compound, the “dyspnea and peripheral oedema” value in experiment [3] (during the next day after the levosimendan infusion was added) is given as “decreased”. The daily urine volume was found to be 3800 mL in experiment [3] (on the day after levosimendan infusion); 6350 mL in experiment [3] (on the day they received levosimendan (0.05 then 0.1 microg/kg/min, 24 h infusion) on top of furosemide and spironolactone).
